Converted amounts (≈) assume the structure as drawn.
What was measured:
[1] = test system: Escherichia coli (NCIM 2065); experiment: Antibacterial susceptibility test, microbroth dilution MIC; format: cell-based; conditions: E. Coli (NCIM 2065); mean ± SD
MRSA (NCIM 5021) [2] = experiment: as above; format: cell-based, methicillin-resistant Staphylococcus aureus; conditions: mean ± SD
MRSA (ATCC43300) [3] = experiment: as above; format: cell-based, methicillin-resistant Staphylococcus aureus; conditions: mean ± SD
[4] = test system: Escherichia coli (NCIM 2065); experiment: Minimum bactericidal concentration (MBC); format: cell-based; conditions: E. Coli (NCIM 2065); for MBC/MIC: ratio ≤2 bactericidal, ≥4 tolerance
Method: (§1) MBC can be defined as the minimum concentration of a compound required to kill the bacteria over a fixed period under precise conditions. […] Colonies were counted, and colony forming unit (CFU) per milliliter was calculated.

MRSA (ATCC43300) [5] = experiment: Minimum bactericidal concentration (MBC); format: cell-based, methicillin-resistant Staphylococcus aureus
Method: as §1

MRSA (NCIM 5021) [6] = experiment: Minimum bactericidal concentration (MBC); format: cell-based, methicillin-resistant Staphylococcus aureus
Method: as §1

E. coli ParE enzyme = biological target: T1, E. coli ParE enzyme (Escherichia coli, UniProt P20083); experiment: E. coli ParE ATPase enzyme inhibition assay (ProFoldin kit, malachite green); format: biochemical; conditions: ATPase activity, mean ± SD (n = 3)
T1 construct: purchased ProFoldin, Hudson, United States
T1 sequence (P20083 whole entry): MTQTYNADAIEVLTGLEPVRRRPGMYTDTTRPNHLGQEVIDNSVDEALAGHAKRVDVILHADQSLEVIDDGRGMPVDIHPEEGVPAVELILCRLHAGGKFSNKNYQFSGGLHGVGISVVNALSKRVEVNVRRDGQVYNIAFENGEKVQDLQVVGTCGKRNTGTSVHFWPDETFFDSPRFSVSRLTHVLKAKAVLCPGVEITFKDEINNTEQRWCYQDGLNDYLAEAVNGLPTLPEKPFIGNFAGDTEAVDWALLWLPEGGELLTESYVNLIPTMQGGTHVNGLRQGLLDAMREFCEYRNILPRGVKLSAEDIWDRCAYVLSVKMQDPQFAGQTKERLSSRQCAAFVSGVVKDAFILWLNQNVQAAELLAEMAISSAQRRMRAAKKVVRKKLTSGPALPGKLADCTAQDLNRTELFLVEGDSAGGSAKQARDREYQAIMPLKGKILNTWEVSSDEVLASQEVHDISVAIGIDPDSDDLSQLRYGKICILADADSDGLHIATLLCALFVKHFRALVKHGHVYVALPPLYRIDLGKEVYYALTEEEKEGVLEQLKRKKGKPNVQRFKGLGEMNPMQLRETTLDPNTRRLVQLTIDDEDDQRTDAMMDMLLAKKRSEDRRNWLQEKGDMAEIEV
T1 sequence (P0AFI2 whole entry, further chain): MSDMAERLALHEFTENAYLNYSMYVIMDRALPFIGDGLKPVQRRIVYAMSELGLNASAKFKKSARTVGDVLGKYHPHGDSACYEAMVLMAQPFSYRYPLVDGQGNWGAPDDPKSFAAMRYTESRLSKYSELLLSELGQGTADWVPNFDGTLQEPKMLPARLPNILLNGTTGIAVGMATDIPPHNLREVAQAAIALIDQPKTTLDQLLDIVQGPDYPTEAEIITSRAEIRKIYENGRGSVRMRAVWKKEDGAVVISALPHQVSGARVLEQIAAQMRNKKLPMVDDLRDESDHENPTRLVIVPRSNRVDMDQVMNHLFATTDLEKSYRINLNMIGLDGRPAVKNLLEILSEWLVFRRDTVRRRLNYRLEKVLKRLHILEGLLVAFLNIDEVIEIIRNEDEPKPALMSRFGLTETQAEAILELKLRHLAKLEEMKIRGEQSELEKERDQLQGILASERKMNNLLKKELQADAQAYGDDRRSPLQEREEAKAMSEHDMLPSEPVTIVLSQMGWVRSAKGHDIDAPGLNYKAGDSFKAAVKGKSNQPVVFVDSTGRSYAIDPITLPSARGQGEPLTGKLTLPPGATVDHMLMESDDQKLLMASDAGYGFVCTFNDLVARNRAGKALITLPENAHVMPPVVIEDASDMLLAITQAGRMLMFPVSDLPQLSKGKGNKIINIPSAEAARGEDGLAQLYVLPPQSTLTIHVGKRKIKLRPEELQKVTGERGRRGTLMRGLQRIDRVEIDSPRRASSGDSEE
Method: The assay was performed as per the standard protocol provided by the ProFoldin. […] ParE hydrolyzes ATP as the source of molecular energy to perform decatenation reactions. Fluoroquinolones and aminocoumarins usually block ATPase activity to hinder the biological activities of topoisomerase II. Thus, the topoisomerase ATPase assay can be used for high-throughput screening of topoisomerase inhibitors. The ATPase activity of the E. coli ParE enzyme was based on the detection of inorganic phosphate produced by the hydrolysis of ATP in the presence of DNA. The phosphate is detected using a microplate reader at an absorbance wavelength of 650 nm. The selected compounds were tested for the inhibition of ATPase activity of ParE enzyme. […] The reaction mixture was incubated for 1 h at 37°C and then quenched with 45 μL of Dye. Incubate for 5 min, and the absorbance was measured at 650 nm. The IC50 values were determined from the absorbance readings using no enzyme and no compound controls. They were calculated using the non-linear regression curve fit method.

[7] = test system: Klebsiella pneumonia (NCIM 2706); design: method as in Yele et al., 2020, 2021; conditions: ref Yele et al., 2020, 2021; cited from earlier work
[8] = test system: Pseudomonas aeruginosa (NCIM 2036); design: method as in Yele et al., 2020, 2021; conditions: ref Yele et al., 2020, 2021; cited from earlier work
[9] = test system: Escherichia coli (NCIM 2567); design: method as in Yele et al., 2020, 2021; conditions: ref Yele et al., 2020, 2021; cited from earlier work
[10] = test system: Staphylococcus epidermis (NCIM 2493); design: method as in Yele et al., 2020, 2021; conditions: ref Yele et al., 2020, 2021; cited from earlier work
[11] = test system: Staphylococcus aureus (NCIM 5022); design: method as in Yele et al., 2020, 2021; conditions: ref Yele et al., 2020, 2021; cited from earlier work
[12] = test system: Bacillus subtilis (NCIM 2545); design: method as in Yele et al., 2020, 2021; conditions: ref Yele et al., 2020, 2021; cited from earlier work
[13] = test system: Mycobacterium tuberculosis (NCIM 2984); design: method as in Yele et al., 2020, 2021; conditions: ref Yele et al., 2020, 2021; cited from earlier work
E. coli = experiment: Checkerboard synergy with FDA approved drugs; format: cell-based, Escherichia coli
[14] = FIC of compound 5 in combination
[15] = FIC of compound 21 in combination with the row's drug
[16] = FIC of the drug in combination with compound 5
[17] = FIC of the drug in combination with compound 21

| Structure (SMILES) | Minimum inhibitory concentration [1] | Minimum inhibitory concentration (MRSA (NCIM 5021) [2]) | Minimum inhibitory concentration (MRSA (ATCC43300) [3]) | MBC [4] | MBC/MIC [4] | MBC (MRSA (ATCC43300) [5]) | MBC/MIC (MRSA (ATCC43300) [5]) | MBC (MRSA (NCIM 5021) [6]) | MBC/MIC (MRSA (NCIM 5021) [6]) | IC50 against E. coli ParE enzyme (E. coli ParE enzyme) | Minimum inhibitory concentration (MIC) K. p [7] | Minimum inhibitory concentration (MIC) P. a [8] | Minimum inhibitory concentration (MIC) E. c [9] | Minimum inhibitory concentration (MIC) S. e [10] | Minimum inhibitory concentration (MIC) S. a [11] | Minimum inhibitory concentration (MIC) B. s [12] | Minimum inhibitory concentration (MIC) M. t [13] | further results |
| --- | --- | --- | --- | --- | --- | --- | --- | --- | --- | --- | --- | --- | --- | --- | --- | --- | --- | --- |
| O=C(COc1ccccc1NC(=O)CCl)Nc1ccc(S(=O)(=O)O)cc1 [Compound 6] | 1.56 ± 0.30 µg/mL (≈ 3.91 µM) | 1.86 ± 0.10 µg/mL (≈ 4.66 µM) | 1.71 ± 0.21 µg/mL (≈ 4.29 µM) | 3.7 ± 0.12 µg/mL (≈ 9.28 µM) | 3 | 4.56 ± 0.08 µg/mL (≈ 11.4 µM) | 3 | 7.39 ± 0.18 µg/mL (≈ 18.5 µM) | 4 | 1.19 µg/mL (≈ 2.98 µM) | 0.78 | 0.64 | 0.86 | 7.89 | 5.23 | 3.56 | 15.23 | – |
| CO[C@H]1/C=C/O[C@@]2(C)Oc3c(C)c(O)c4c(O)c(c(/C=N/N5CCN(C)CC5)c(O)c4c3C2=O)NC(=O)/C(C)=C\C=C\[C@H](C)[C@H](O)[C@@H](C)[C@@H](O)[C@@H](C)[C@H](OC(C)=O)[C@@H]1C [Rifampicin] | – | – | – | – | – | – | – | – | – | – | – | – | – | – | – | – | – | FIC A (E. coli; [14]): 0.1202; FIC A (E. coli; [15]): 0.1942; FIC B (E. coli; [16]): 0.0524; FIC B (E. coli; [17]): 0.1281; Inference (E. coli; drug combined with compound 5): Synergistic (synergistic when the ΣFICs is ≤ 0.5); ΣFIC A + FIC B (E. coli; drug combined with compound 5): 0.1726; Inference (E. coli; drug combined with compound 21): Synergistic (synergistic when the ΣFICs is ≤ 0.5); ΣFIC A + FIC B (E. coli; drug combined with compound 21): 0.3223 |
| Cc1ccc(S(=O)(=O)NC(=O)COc2ccccc2NC(=O)CCl)cc1 [Compound 18] | 1.42 ± 0.23 µg/mL (≈ 3.58 µM) | 1.81 ± 0.40 µg/mL (≈ 4.56 µM) | 1.74 ± 0.21 µg/mL (≈ 4.38 µM) | 1.42 ± 0.23 µg/mL (≈ 3.58 µM) | 1 | 3.74 ± 0.16 µg/mL (≈ 9.42 µM) | 2 | 1.81 ± 0.40 µg/mL (≈ 4.56 µM) | 1 | 1.81 µg/mL (≈ 4.56 µM) | 5.25 | 4.67 | 5.20 | 3.96 | 2.48 | 3.52 | 4.62 | – |
| O=C(COc1ccccc1NC(=O)CCl)NNC(=O)c1ccncc1 [Compound 16] | 2.60 ± 0.28 µg/mL (≈ 7.17 µM) | 5.65 ± 0.27 µg/mL (≈ 15.6 µM) | 2.74 ± 0.19 µg/mL (≈ 7.55 µM) | 9.12 ± 0.11 µg/mL (≈ 25.1 µM) | 4 | – | – | – | – | 2.62 µg/mL (≈ 7.22 µM) | 2.56 | 3.23 | 2.12 | 7.24 | 8.99 | 11.59 | 1.79 | – |
| COc1ccc(OCC(=O)Nc2ccc(C(=O)O)cc2)cc1 [Compound 27] | 1.59 ± 0.38 µg/mL (≈ 5.28 µM) | 1.71 ± 0.24 µg/mL (≈ 5.68 µM) | 1.06 ± 0.14 µg/mL (≈ 3.52 µM) | 1.59 ± 0.38 µg/mL (≈ 5.28 µM) | 1 | 1.06 ± 0.14 µg/mL (≈ 3.52 µM) | 1 | 3.55 ± 0.07 µg/mL (≈ 11.8 µM) | 2 | 1.30 µg/mL (≈ 4.31 µM) | 1.40 | 2.21 | 0.98 | 0.94 | 0.94 | 3.06 | 0.79 | – |
| O=C(CNc1nc2ccccc2s1)Nc1ccccc1 [Compound 26] | 2.64 ± 0.31 µg/mL (≈ 9.32 µM) | 2.77 ± 0.21 µg/mL (≈ 9.78 µM) | 2.78 ± 0.20 µg/mL (≈ 9.81 µM) | 0.72 ± 0.05 µg/mL (≈ 2.54 µM) | 1 | 4.32 ± 0.10 µg/mL (≈ 15.2 µM) | 4 | 0.86 ± 0.13 µg/mL (≈ 3.04 µM) | 1 | 1.54 µg/mL (≈ 5.43 µM) | 1.31 | 1.22 | 1.05 | 8.14 | 0.98 | 3.65 | 10.1 | – |
| O=C(COc1ccccc1NC(=O)CCl)NNC(=O)c1ccccc1Cl [Compound 15] | 0.98 ± 0.07 µg/mL (≈ 2.47 µM) | 5.60 ± 0.36 µg/mL (≈ 14.1 µM) | 1.51 ± 0.49 µg/mL (≈ 3.81 µM) | – | – | 3.18 ± 0.32 µg/mL (≈ 8.03 µM) | 2 | – | – | 1.33 µg/mL (≈ 3.36 µM) | 1.89 | 1.45 | 1.63 | 0.64 | 0.62 | 0.67 | 3.52 | – |
| COc1ccc(OCC(=O)Nc2ccc(Cl)cc2)cc1 [Compound 28] | 1.88 ± 0.11 µg/mL (≈ 6.44 µM) | 2.70 ± 0.22 µg/mL (≈ 9.26 µM) | 2.04 ± 0.16 µg/mL (≈ 6.99 µM) | 3.85 ± 0.25 µg/mL (≈ 13.2 µM) | 2 | – | – | 10.62 ± 0.44 µg/mL (≈ 36.4 µM) | 4 | 1.93 µg/mL (≈ 6.62 µM) | 1.98 | 5.55 | 0.88 | 0.71 | 1.21 | 2.04 | 1.47 | – |
| C[C@H]1c2cccc(O)c2C(=O)C2=C(O)[C@]3(O)C(=O)C(C(N)=O)=C(O)[C@@H](N(C)C)[C@@H]3[C@@H](O)[C@@H]21 [Doxycycline] | – | – | – | – | – | – | – | – | – | – | – | – | – | – | – | – | – | FIC A (E. coli; [14]): 0.0702; FIC A (E. coli; [15]): 0.1813; FIC B (E. coli; [16]): 0.0273; FIC B (E. coli; [17]): 0.0262; Inference (E. coli; drug combined with compound 5): Synergistic (synergistic when the ΣFICs is ≤ 0.5); ΣFIC A + FIC B (E. coli; drug combined with compound 5): 0.0975; Inference (E. coli; drug combined with compound 21): Synergistic (synergistic when the ΣFICs is ≤ 0.5); ΣFIC A + FIC B (E. coli; drug combined with compound 21): 0.2075 |
| COc1ccc(C(=O)NNC(=O)COc2ccccc2NC(=O)CCl)cc1 [Compound 13] | 2.60 ± 0.26 µg/mL (≈ 6.64 µM) | 8.36 ± 0.30 µg/mL (≈ 21.3 µM) | 2.47 ± 0.46 µg/mL (≈ 6.3 µM) | 9.43 ± 0.11 µg/mL (≈ 24.1 µM) | 4 | – | – | – | – | 2.73 µg/mL (≈ 6.97 µM) | 0.89 | 1.25 | 1.92 | 4.15 | 3.28 | 7.10 | 1.33 | – |

Reference: article PMC8247773, “Benzohydrazide and Phenylacetamide Scaffolds: New Putative ParE Inhibitors” (Frontiers in Bioengineering and Biotechnology, 2021)
